According to patent US20050053916A1, “Diagnostic for long term response of HBV carrier to 3TC therapy” (priority 2002, published 2005):
“And” between values parts separate entries of the source, which are not always exact repeats. Equal entries are not always repeated. “Also recorded” adds a separate entry of the source.

Assays:
HBV [1] = conditions: after 16 weeks or more of treatment; HBeAg positive candidates; cited from earlier work
HBV [2] = assay: Virological response (serum HBV DNA, HBV Monitor PCR) in chronic hepatitis B patients on long-term lamivudine therapy; format: in vivo, human; conditions: for virologic breakthrough observed, number of patients: of 12 breakthrough patients
Text: (§1) All patients had detectable HBV DNA by polymerase chain reaction (PCR) assay (HBV Monitor, Roche Diagnostics, Inc.) and by solution hybridization assay (Abbott Diagnostics, Inc.) at baseline and for at least 6 months before therapy. […] Patients were negative for hepatitis C, hepatitis D, or human immunodeficiency virus antibodies, and there were no evidences of autoimmune hepatitis.
(§2) All patients were followed with monthly clinical examination and routine laboratory tests.
Serum HBV DNA for the evaluation of response to treatment was analyzed by the HBV Monitor™ assay (Roche Diagnostic, Inc.) with a detection limit of 100 copies/ml, and a solution hybridization assay (Abbott Laboratories, Inc.) with a detection limit of 10 pg/ml.
(§3) Definitions—“Responder” patients were classified as attaining both a biochemical and virological response: normalization of ALT values and the absence of serum HBV DNA by Monitor™ PCR in two consecutive determinations during treatment. “Breakthrough” was defined as those patients in who HBV DNA reappeared by Monitor™ PCR assay after an initial antiviral response (serum HBV DNA negative by Monitor™ PCR), eventually associated with an increase of ALT levels greater than 1.5× the upper limit of normal (35 IU/L).

[3] = system: serum alanine transaminase (ALT); assay: Biochemical response (serum ALT) in chronic hepatitis B patients on long-term lamivudine therapy; format: in vivo, human; conditions: for No. of patients with ALT elevation / No. of patients with Sustained ALT Normalization: outcome summary
Description: as §1, with “hepatitis. None of the patients were treated with interferon or other antiviral agents, such as famciclovir or adefovir dipovoxil, during the study or within six months before the beginning of lamivudine treatment.” for “hepatitis.”
as §2
Blood test—An aliquot of serum was collected at each visit and stored at −70° C. until used for analysis.
HBV serologic markers were tested by commercial enzyme immunoassay kits: HBeAg and anti-HBeAg (DiaSorin, Italy), and HBsAg (Abbott Laboratories, Inc.). Serum samples were also evaluated for routine biochemical markers of liver disease, including ALT.
as §3

[4] = after a minimum of 27 months of therapy, 26 patients
[5] = individual breakthrough (BK) patients, row order Pt #4, 5, 8, 10, 12, 13, 16, 17, 19, 20, 24, 26, 27-53 months of treatment
[6] = individual non-responder (NR) patients, row order Pt #3, 6, 9, 11, 15, 21, 22, 33-47 months of treatment

interferon-alpha
individuals who lose serum HBeAg (HBV [1]): about 40%

Nc1ccn([C@@H]2CS[C@H](CO)O2)c(=O)n1 [lamivudine]
virologic breakthrough observed, number of patients (HBV [2]; after 12 months of therapy): 6 patients
patients who were breakthroughs (HBV [2]; [4]): 46%
patients who were non-responders (HBV [2]; [4]): 27%
patients who were responders (HBV [2]; [4]): 27%
virologic breakthrough observed, number of patients (HBV [2]; between 12 and 18 months of therapy): 5 patients
patients in whom HBV DNA became undetectable (HBV [2]; by week 24 of treatment, 19 of 26 patients, lamivudine orally 100 mg daily): 73%
HBV DNA (log10/ml), treatment (last follow up) (HBV [2]; [5]): 5.00 log10/ml and 5.31 log10/ml and 5.17 log10/ml and 6.20 log10/ml and 5.67 log10/ml and 6.62 log10/ml and 5.88 log10/ml and 4.54 log10/ml and 6.08 log10/ml and 7.02 log10/ml and 6.18 log10/ml
HBV DNA (log10/ml), treatment (last follow up) (HBV [2]; [6]): 4.25 log10/ml and 4.55 log10/ml and 6.11 log10/ml (2×) and 7.28 log10/ml and 5.19 log10/ml and 6.19 log10/ml
HBV DNA (log10/ml), treatment (last follow up) (HBV [2]; individual responder (R) patients, row order Pt #1, 2, 7, 14, 18, 23, 25, 27-50 months of treatment): ud* (undetectable, limit of detection 1000 copies/ml); also recorded: ud (undetectable, limit of detection 1000 copies/ml)
No. of Patients (%), Breakthrough (HBV [2]; outcome summary (26 pts)): 12 (46%)
No. of Patients (%), Non-responder (HBV [2]; outcome summary (26 pts)): 7 (27%)
No. of Patients (%), Responder (HBV [2]; outcome summary (26 pts)): 7 (27%)
patients in whom serum ALT normalized ([3]; by week 24 of treatment, 13 of 26 patients, lamivudine orally 100 mg daily): 50%
ALT (IU/L), treatment (last follow up) [3, 5]: 9 IU/L (2×) and 5 IU/L (3×) and 21 IU/L and 75 IU/L and 81 IU/L and 51 IU/L and 80 IU/L and 2 IU/L and 4 IU/L
ALT (IU/L), treatment (last follow up) [3, 6]: 68 IU/L and 37 IU/L and 4 IU/L (2×) and 66 IU/L and 74 IU/L and 85 IU/L
ALT (IU/L), treatment (last follow up) ([3]; individual responder (R) patients, row order Pt #1, 2, 7, 14, 18, 23, 25, 27-50 months of treatment, upper limit of normal 35 IU/L): 30 IU/L and 24 IU/L (2×) and 20 IU/L and 18 IU/L and 21 IU/L and 16 IU/L
No. of patients with ALT elevation ([3]; Breakthrough group (12 pts)): 5
No. of patients with Sustained ALT Normalization ([3]; Breakthrough group (12 pts)): 7
No. of patients with ALT elevation ([3]; Non-responder group (7 pts)): 7
No. of patients with Sustained ALT Normalization ([3]; Non-responder group (7 pts)): 0
No. of patients with ALT elevation ([3]; Responder group (7 pts)): 7
No. of patients with Sustained ALT Normalization ([3]; Responder group (7 pts)): 0
